# Measurements published in ChEMBL document CHEMBL1121624, “Synthesis, biological evaluation, and preliminary structure-activity considerations of a series of alkylphenols as intravenous anesthetic agents” (J Med Chem, 1980).
# Columns and labels:
# Mus musculus [1] = organism: Mus musculus; assay: Hypnotic activity was measured as dose which causes loss of righting reflex for a minimum period of 30s in 50% of mice; Range is 20-30; type: functional
# Mus musculus [2] = organism: Mus musculus; assay: Speed of induction of analgesia in mice was determined; I = immediate, <10 s; type: functional, organism-based
# Mus musculus [3] = organism: Mus musculus; assay: Duration of analgesic action in mice was determined; B = brief, < 5 min; type: functional, organism-based
# [4] = Acute toxicity measured as median lethal dose in mice; Range is 100-120; type: organism-based; details: mouse, in vivo
# Mus musculus [5] = organism: Mus musculus; assay: Hypnotic activity was measured as dose which causes loss of righting reflex for a minimum period of 30s in 50% of mice; Range is 30-40; type: functional
# [6] = Acute toxicity measured as median lethal dose in mice; type: organism-based; details: mouse, in vivo
# [7] = Acute toxicity measured as median lethal dose in mice; Range is 40-60; type: organism-based; details: mouse, in vivo
# Mus musculus [8] = organism: Mus musculus; assay: Hypnotic activity was measured as dose which causes loss of righting reflex for a minimum period of 30s in 50% of mice; type: functional
# [9] = Acute toxicity measured as median lethal dose in mice; Range is 80-100; type: organism-based; details: mouse, in vivo
# Mus musculus [10] = organism: Mus musculus; assay: Hypnotic activity was measured as dose which causes loss of righting reflex for a minimum period of 30s in 50% of mice; Range is 5-10; type: functional
# Mus musculus [11] = organism: Mus musculus; assay: Speed of induction of analgesia in mice was determined; S = slow, 10-15 s; type: functional, organism-based
# Mus musculus [12] = organism: Mus musculus; assay: Duration of analgesic action in mice was determined; M = moderate, 5-10 min; type: functional, organism-based
# Mus musculus [13] = organism: Mus musculus; assay: Speed of induction of analgesia in mice was determined; VS = very slow, > 15s; type: functional, organism-based
# Mus musculus [14] = organism: Mus musculus; assay: Hypnotic activity was measured as dose which causes loss of righting reflex for a minimum period of 30s in 50% of mice; Range is 20-40; type: functional
# [15] = Acute toxicity measured as median lethal dose in mice; Range is 120-140; type: organism-based; details: mouse, in vivo
# Mus musculus [16] = organism: Mus musculus; assay: Hypnotic activity was measured as dose which causes loss of righting reflex for a minimum period of 30s in 50% of mice; Range is 10-20; type: functional
# Mus musculus [17] = organism: Mus musculus; assay: Duration of analgesic action in mice was determined; L = long, >10; type: functional, organism-based
# Mus musculus [18] = organism: Mus musculus; assay: Hypnotic activity was measured as dose which causes loss of righting reflex for a minimum period of 30s in 50% of mice; Range is 10-15; type: functional
# Mus musculus [19] = organism: Mus musculus; assay: Hypnotic activity was measured as dose which causes loss of righting reflex for a minimum period of 30s in 50% of mice; Range is 20-25; type: functional
# [20] = Acute toxicity measured as median lethal dose in mice; Range is 80-90; type: organism-based; details: mouse, in vivo
# Mus musculus [21] = organism: Mus musculus; assay: Hypnotic activity was measured as dose which causes loss of righting reflex for a minimum period of 30s in 50% of mice; Range is 40-60; type: functional
# Mus musculus [22] = organism: Mus musculus; assay: Hypnotic activity was measured as dose which causes loss of righting reflex for a minimum period of 30s in 50% of mice; Range is 15-20; type: functional
# in vivo = details: mouse
# [23] = Acute toxicity measured as median lethal dose in mice; Range is 160-180; type: organism-based; details: mouse, in vivo
smiles,measurement,setting,value
Cc1cccc(C)c1O,HD50,Mus musculus [1],20 mg/kg
same,Speed of induction,Mus musculus [2],Immediate induction
same,Duration of action,Mus musculus [3],Brief duration
CC(C)c1ccccc1O,LD50,[4],100 mg/kg
same,HD50,Mus musculus [5],30 mg/kg
CCC(C)c1ccc(O)c(C(C)CC)c1 (configuration not stated),HD50,Mus musculus [1],20 mg/kg
same,LD50,[6],120 mg/kg
CC(C)c1ccc(O)cc1,LD50,[7],40 mg/kg
same,HD50,Mus musculus [5],30 mg/kg
CCc1cc(C(C)C)c(O)c(C(C)C)c1,HD50,Mus musculus [8],20 mg/kg
same,LD50,[9],80 mg/kg
CCC(C)c1cccc(C(C)CC)c1O (configuration not stated),HD50,Mus musculus [10],5 mg/kg
same,LD50,[6],60 mg/kg
same,Speed of induction,Mus musculus [11],Slow
same,Duration of action,Mus musculus [12],Moderate
CCCc1cccc(CCC)c1O,HD50,Mus musculus [1],20 mg/kg
same,LD50,[6],100 mg/kg
same,Speed of induction,Mus musculus [2],Immediate
same,Duration of action,Mus musculus [3],Brief duration
Cc1cccc(C(C)C)c1O,HD50,Mus musculus [1],20 mg/kg
same,LD50,[6],80 mg/kg
same,Speed of induction,Mus musculus [2],Immediate
same,Duration of action,Mus musculus [3],Brief duration
CCCCc1cccc(CCC)c1O,Duration of action,Mus musculus [3],Brief duration
same,Speed of induction,Mus musculus [13],Very slow
same,HD50,Mus musculus [14],20 mg/kg
same,LD50,[4],100 mg/kg
CCC(C)c1cccc(C2CC2)c1O (configuration not stated),Duration of action,Mus musculus [3],Brief duration
same,Speed of induction,Mus musculus [11],Slow
same,HD50,Mus musculus [14],20 mg/kg
same,LD50,[15],120 mg/kg
CCC(C)c1cc(C)cc(C(C)CC)c1O (configuration not stated),LD50,[6],140 mg/kg
same,HD50,Mus musculus [8],30 mg/kg
Cc1ccc(C(C)C)cc1O [CARVACROL],LD50,[9],80 mg/kg
same,HD50,Mus musculus [5],30 mg/kg
CCCC(C)c1cccc(CC)c1O (configuration not stated),Speed of induction,Mus musculus [2],Immediate
same,Duration of action,Mus musculus [3],Brief duration
same,HD50,Mus musculus [16],10 mg/kg
same,LD50,[4],100 mg/kg
CCCc1cccc(C(C)CC)c1O (configuration not stated),LD50,[6],120 mg/kg
same,Duration of action,Mus musculus [3],Brief duration
same,Speed of induction,Mus musculus [11],Slow
same,HD50,Mus musculus [16],10 mg/kg
CCC(C)c1ccccc1O (configuration not stated),HD50,Mus musculus [5],30 mg/kg
CCCC(C)C1(CC)C(=O)NC(=S)NC1=O (stereo in doubt; form 1),Speed of induction,Mus musculus [2],Immediate
same,Duration of action,Mus musculus [3],Brief duration
CCCCC(C)c1cccc(C(C)C)c1O (configuration not stated),Speed of induction,Mus musculus [11],Slow
same,Duration of action,Mus musculus [17],Long
same,LD50,[4],100 mg/kg
same,HD50,Mus musculus [18],10 mg/kg
Cc1c(C(C)C)ccc(C(C)C)c1O,LD50,[6],100 mg/kg
same,HD50,Mus musculus [8],20 mg/kg
Cc1ccc(O)c(C)c1,LD50,[4],100 mg/kg
same,HD50,Mus musculus [5],30 mg/kg
CCCC(C)C1(CC)C(=O)[N-]C(=S)NC1=O.[Na+] (stereo in doubt; form 2) [THIOPENTAL SODIUM],HD50,Mus musculus [19],20 mg/kg
same,LD50,[20],80 mg/kg
CCCCc1cccc(C(C)C)c1O,LD50,[6],100 mg/kg
same,Speed of induction,Mus musculus [2],Immediate
same,HD50,Mus musculus [8],20 mg/kg
same,Duration of action,Mus musculus [3],Brief duration
CC(C)(C)c1ccc(O)c(C(C)(C)C)c1,HD50,Mus musculus [21],40 mg/kg
same,LD50,[4],100 mg/kg
CCCc1cccc(CC)c1O,LD50,[6],100 mg/kg
same,Duration of action,Mus musculus [3],Brief duration
same,Speed of induction,Mus musculus [13],Very slow
same,HD50,Mus musculus [14],20 mg/kg
CCC(C)c1cccc(C(C)C)c1O (configuration not stated),HD50,Mus musculus [10],5 mg/kg
same,LD50,[6],50 mg/kg
same,Speed of induction,Mus musculus [2],Immediate
same,Duration of action,Mus musculus [3],Brief duration
CCCC(C)c1cccc(C(C)C)c1O (configuration not stated),LD50,[6],80 mg/kg
same,Speed of induction,Mus musculus [11],Slow
same,Duration of action,Mus musculus [17],Long
same,HD50,Mus musculus [18],10 mg/kg
CCCCCC(C)c1cccc(C)c1O (configuration not stated),HD50,Mus musculus [22],15 mg/kg
same,LD50,[6],100 mg/kg
same,Speed of induction,Mus musculus [13],Very slow
same,Duration of action,Mus musculus [17],Long
Cc1ccc(O)c(C(C)(C)C)c1,HD50,Mus musculus [8],30 mg/kg
CC(C)c1cccc(C(C)C)c1O [PROPOFOL],HD50,Mus musculus [10],5 mg/kg
same,Speed of induction,Mus musculus [2],Immediate induction
same,Duration of action,Mus musculus [3],Brief duration
same,LD50,in vivo,50 mg/kg
CCCC(C)c1cccc(C(C)CCC)c1O (configuration not stated),LD50,[23],160 mg/kg
same,HD50,Mus musculus [22],15 mg/kg
same,Speed of induction,Mus musculus [13],Very slow
same,Duration of action,Mus musculus [17],Long
